This note sets out measurements from patent EP4786474A1, “CRYSTALLINE FORM OF QUINAZOLINE DERIVATIVE AND PREPARATION METHOD THEREFOR” (Jiangsu Hengrui Pharmaceuticals Co., Ltd., priority 2023, dated 2025).

A short description of series [1]: DVS (dynamic vapor sorption) hygroscopicity testing. Format: physicochemical. From the text: According to the description of hygroscopicity characteristics and the definition of hygroscopic weight gain in "General Rule 9103, Guidelines for Hygroscopicity Trials for Pharmaceuticals" in the Chinese Pharmacopoeia, Volume IV, 2015 Edition: • deliquescent: sufficient water is absorbed to form a liquid; • extremely hygroscopic: the hygroscopic weight gain is not less than 15%; • hygroscopic: the hygroscopic weight gain is less than 15% but not less than 2%; • slightly hygroscopic: the hygroscopic weight gain is less than 2% but not less than 0.2%; • nonhygroscopic or practically nonhygroscopic: the hygroscopic weight gain is less than 0.2%.
DVS refers to dynamic vapor sorption: The analysis was performed using SMS DVS Advantage; at 25 °C, the humidity was changed as follows: 50%-95%-0%-95%-50%, in steps of 10% (5% for the last step) (specific humidity ranges are shown in corresponding patterns, and those listed here were used in most cases); the criterion was dm/dt being not greater than 0.002%.

Series [2] can be described thus: Influencing factor stability study. The class given is physicochemical. As for the experimental part: Samples of the crystal forms D, E, and H were spread in open containers and left to stand under light exposure (4500 Lux), high temperature (40 °C and 60 °C), and high humidity (RH 75% and RH 92.5%) conditions for 1 month to investigate their stability.
Series [3] is described as follows: Long-term/accelerated stability. Format: physicochemical. As for the experimental part:
Samples of the crystal forms D, E, and H were left to stand under 25 °C/60% RH and 40 °C/75% RH conditions to investigate their stability: Table 30.

Series [4] has as its system EGFR wild-type Ba/F3 cells. Briefly: Ba/F3 cell proliferation assay (Celltiter-Glo). The class given is cell-based. To be noted: 72 h incubation. As for the experimental part: (§1) EGFR wild-type Ba/F3 cells (Cobioer, Cat. No. CBP73110) in the logarithmic growth phase were seeded into a 96-well plate at 2.5 × 10^3 cells/100 µL in a growth medium, and HER2 wild-type Ba/F3 cells (Cobioer, Cat. No. CBP73110) or HER2 A775_G776insYVMA mutant Ba/F3 cells (Cobioer, Cat. No. CBP73184) in the logarithmic growth phase were seeded into a 96-well plate at 5 × 10^3 cells/100 µL in a growth medium. The plates were placed in a cell incubator at 37 °C overnight. The next day, the compound diluted in a 3-fold gradient with a medium was added to the plates at 100 µL/well. All treatments were performed in triplicate. The plates were incubated in the cell incubator at 37 °C for another 72 h. Celltiter-Glo Luminescent cell viability assay was performed.
(§2) The cell proliferation rate corresponding to each well was calculated according to the following formula: proliferation% = (test compound well G3 - G0 average value)/(DMSO control well G3 average value - G0 average value) × 100. According to the proliferation rate and concentration corresponding to each gradient concentration well, a gradient curve for cell proliferation was fitted using Prism Graphpad software, and the GI50 (GI50 is defined as the compound concentration corresponding to a cell proliferation inhibition rate of 50%) of the compound was calculated.
On the technique in general: ATP-based viability assays read luminescence as a measure of living cells.

Series [5] concerns HER2 A775_G776insYVMA mutant Ba/F3 cells. The series can be described thus: Ba/F3 cell proliferation assay (Celltiter-Glo). The class given is cell-based. To be noted: 72 h incubation. As for the experimental part:
as §1, §2

Series [6] deals with HER2 wild-type Ba/F3 cells. Briefly: Ba/F3 cell proliferation assay (Celltiter-Glo). The class given is cell-based. To be noted: 72 h incubation. As for the experimental part:
as §1, §2

On to `C=CC(=O)N1[C@@H]2CC[C@H]1C[C@@H](Oc1ccc3ncnc(Nc4ccc(Oc5ccn6ncnc6c5)c(C)c4F)c3c1)C2` [Crystal form H, 1-(endo-3-((4-((4-([1,2,4]Triazolo[1,5-a]pyridin-7-yloxy)-2-fluoro-3-methylphenyl)amino)quinazolin-6-yl)oxy)-8-azabicyclo[3.2.1]octan-8-yl)prop-2-en-1-one], for which the hygroscopic weight gain result in series [1] (accelerated experimental conditions, 70% RH) is reported as “about 0.12%”; in series [1] (extreme conditions, 90% RH), “about 0.22%”; in series [1] (normal storage conditions, 25 °C and 60% RH), “about 0.09%”. Moreover, the Color and appearance result is listed as “White powder” in series [2] (40 °C, 1 month); “White powder” in series [2] (40 °C, 7 days); “White powder” in series [2] (40 °C, 14 days); “White powder” in series [2] (60 °C, 1 month); “White powder” in series [2] (60 °C, 7 days); “White powder” in series [2] (60 °C, 14 days). The Color and appearance entry in series [2] (75% RH, 1 month) is “White powder”; in series [2] (75% RH, 7 days), “White powder”; in series [2] (75% RH, 14 days), “White powder”; in series [2] (92.5% RH, 1 month) it was “White powder”; in series [2] (92.5% RH, 7 days) it was “White powder”; in series [2] (92.5% RH, 14 days), “White powder”. In addition, the Color and appearance result was “White powder” in series [2] (4500 Lux, 1 month); “White powder” in series [2] (4500 Lux, 7 days); “White powder” in series [2] (4500 Lux, 14 days); “White powder” in series [2] (Initial, 0); “White powder” in series [3] (25 °C/60% RH, 1 month); “White powder” in series [3] (25 °C/60% RH, 2 months). Further, the Color and appearance result in series [3] (25 °C/60% RH, 3 months) is given as “White powder”; in series [3] (25 °C/60% RH, 6 months), “White powder”; in series [3] (25 °C/60% RH, 14 days) it was “White powder”; in series [3] (40 °C/75% RH, 1 month), “White powder”; in series [3] (40 °C/75% RH, 2 months), “White powder”; in series [3] (40 °C/75% RH, 3 months), “White powder”. Moreover, the Color and appearance result in series [3] (40 °C/75% RH, 6 months) is recorded as “White powder”; in series [3] (40 °C/75% RH, 14 days), “White powder”; in series [3] (Initial, 0), “White powder”. In addition, the Crystal form entry in series [2] (40 °C, 1 month) is recorded as “No change”; in series [2] (40 °C, 7 days) it was “No change”; in series [2] (40 °C, 14 days), “No change”; in series [2] (60 °C, 1 month), “No change”; in series [2] (60 °C, 7 days) it was “No change”; in series [2] (60 °C, 14 days), “No change”. For the same molecule, the Crystal form entry in series [2] (75% RH, 1 month) is “No change”; in series [2] (75% RH, 7 days), “No change”; in series [2] (75% RH, 14 days), “No change”; in series [2] (92.5% RH, 1 month) it was “No change”; in series [2] (92.5% RH, 7 days), “No change”; in series [2] (92.5% RH, 14 days) it was “No change”. For the same molecule, the Crystal form entry is recorded as “No change” in series [2] (4500 Lux, 1 month); “No change” in series [2] (4500 Lux, 7 days); “No change” in series [2] (4500 Lux, 14 days); “Crystal form H” in series [2] (Initial, 0); “No change” in series [3] (25 °C/60% RH, 1 month); “No change” in series [3] (25 °C/60% RH, 2 months). Moreover, the Crystal form result is “No change” in series [3] (25 °C/60% RH, 3 months); “No change” in series [3] (25 °C/60% RH, 6 months); “No change” in series [3] (25 °C/60% RH, 14 days); “No change” in series [3] (40 °C/75% RH, 1 month); “No change” in series [3] (40 °C/75% RH, 2 months); “No change” in series [3] (40 °C/75% RH, 3 months). For the same molecule, the Crystal form entry in series [3] (40 °C/75% RH, 6 months) was “No change”; in series [3] (40 °C/75% RH, 14 days), “No change”; in series [3] (Initial, 0), “Crystal form H”. Moreover, the “Purity (%)” value in series [2] (40 °C, 1 month) is recorded as 99.4%; in series [2] (60 °C, 1 month) it was 99.4%; in series [2] (Initial, 0) it was 99.8%; in series [3] (Initial, 0), 99.8%. Besides, the “physical and chemical stability” value in series [2] (light exposure (4500 Lux), high temperature (40 °C and 60 °C), high humidity (RH 75% and RH 92.5%), 30 days) is “Conclusion: Standing under light exposure (4500 Lux), high temperature (40 °C and 60 °C), and high humidity (RH 75% and RH 92.5%) conditions for 30 days, the crystal form H exhibited good physical and chemical stability”; in series [3] (long-term/accelerated conditions), “Conclusion: Under long-term/accelerated conditions, the crystal form H exhibited good physical and chemical stability”.
Regarding `C=CC(=O)N1[C@@H]2CC[C@H]1C[C@@H](Oc1ccc3ncnc(Nc4ccc(Oc5ccn6ncnc6c5)c(C)c4F)c3c1)C2` [Example 1, 1-(endo-3-((4-((4-([1,2,4]Triazolo[1,5-a]pyridin-7-yloxy)-2-fluoro-3-methylphenyl)amino)quinazolin-6-yl)oxy)-8-azabicyclo[3.2.1]octan-8-yl)prop-2-en-1-one], the “EGFR WT/ BaF3 Imax %” value in series [4] was determined as 100%. In addition, the “HER2 A775_G776 ins YVMA/ BaF3 Imax %” value in series [5] is 100%. In addition, the “HER2 WT/ BaF3 Imax %” value in series [6] came out at 100%.
For `Cc1cc(Nc2ncnc3ccc(NC4=NC(C)(C)CO4)cc23)ccc1Oc1ccn2ncnc2c1` [Tucatinib, reference compound], in series [5], the “HER2 A775_G776 ins YVMA/ BaF3 Imax %” value is recorded as 100%.
